Reference: PubChem BioAssay (NCI)
Values joined by “and” are separate entries in the source; they are usually repeats but may differ in a detail not shown here. Equal values may be shown once.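 Step 1: Grow cells in 96-well plates. Step 2: Expose to compound for 48 hours at 5 concentrations. Step 3: Interpolate endpoints linearly; if unreached, use highest concentration. At the GI50, growth is halved. At the TGI there is no net growth.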

Key:
Test in all cases: growth of human tumour cells (NCI), 48 h
COLO 205 colon = tested on: COLO 205 colon
A549 NSCLC = tested on: A549 NSCLC
OVCAR-5 ovarian = tested on: OVCAR-5 ovarian
RXF 393 renal = tested on: RXF 393 renal
RPMI-8226 leukemia = tested on: RPMI-8226 leukemia
SK-MEL-28 melanoma = tested on: SK-MEL-28 melanoma
T-47D breast = tested on: T-47D breast
SF-295 CNS = tested on: SF-295 CNS
NCI-H226 lung = tested on: NCI-H226 lung
MDA-MB-435 = tested on: MDA-MB-435

SMILES	TGI (COLO 205 colon) [µM]	TGI (A549 NSCLC) [µM]	TGI (OVCAR-5 ovarian) [µM]	TGI (RXF 393 renal) [µM]	TGI (RPMI-8226 leukemia) [µM]	TGI (SK-MEL-28 melanoma) [µM]	TGI (T-47D breast) [µM]	TGI (SF-295 CNS) [µM]	GI50 (COLO 205 colon) [µM]	TGI (NCI-H226 lung) [µM]	GI50 (RPMI-8226 leukemia)	GI50 (T-47D breast) [nM]	GI50 (SF-295 CNS)	GI50 (MDA-MB-435)	TGI (MDA-MB-435)	GI50 (A549 NSCLC) [µM]	GI50 (OVCAR-5 ovarian) [µM]	GI50 (NCI-H226 lung) [µM]	GI50 (RXF 393 renal) [nM]	GI50 (SK-MEL-28 melanoma) [µM]
COc1cc2c(c(OC)c1OC)-c1ccc(SC)c(=O)cc1[C@@H](NC(=O)C(F)(F)F)CC2	< 0.0631	> 100	> 100	1.28	> 100	17.8	> 100	< 0.01	–	–	–	–	–	–	–	–	–	–	–	–
CC[C@H](C)[C@H](NC(=O)[C@H]1CCCCN1C)C(=O)N(C)[C@H](C[C@@H](OC(C)=O)c1cccc(C(=O)N[C@@H](Cc2ccccc2)C[C@H](C)C(=O)O)n1)C(C)C	0.0143	> 25	> 25	–	> 25	> 25	–	< 0.0025	0.00187	> 25	0.816 nM and 2.5 nM	1.36	2.75 nM and < 2.5 nM	0.279 nM and < 2.5 nM	1.52 nM and < 2.5 nM	–	–	–	–	–
CCCCCCCCCCCCN=C(N)c1ccc(N2CCN(c3ccc(C(N)=NCCCCCCCCCCCC)cc3)CC2)cc1	24.4	30.5	14.3	37.6	–	26.9	21.3	18.1	11.6	29.9	–	10600	7660 nM	9400 nM	19400 nM	11.1	7.16	12.9	9540	13.3
N#C/C(=C1\OC(=N)C(c2ccccc2)C1=O)c1ccccc1 (stereo not given)	44.2	> 100	> 100	31.8	73.3	20.2	–	> 100	–	> 100	–	–	–	–	–	–	–	–	–	–
CCCCCCCCCCCCCCCC(=O)OCCOCCOCCOCCOCCOC(=O)CCCCCCCCCCCCCCC	> 100	> 100	> 100	> 100	> 100	> 100	–	> 100	–	> 100	–	–	–	–	–	–	–	–	–	–
CCOC(=O)c1c(C)nc2c(c1N)/C(=C/c1ccccn1)C(=O)N2Cc1ccccc1	2.38	> 50	2.68	1.79	3.22	3.21	3.3	> 50	1.06	–	1210 nM	1130	1900 nM	–	–	2.52	1.04	–	950	1.16
O=C(CC1C(=O)Nc2ccccc2S1(=O)=O)Nc1ccc(Cl)cc1 (stereo not given)	–	> 100	> 100	38.5	29.6	74.5	–	> 100	–	> 100	–	–	–	–	–	–	–	–	–	–
C/C=C/C(=O)[O-].C/C=C/C(=O)[O-].N.N.N.N.[Co+3].[O-][Cl+3]([O-])([O-])[O-]	> 100	> 100	> 100	–	> 100	> 100	–	> 100	> 100	–	> 100000 nM	–	> 100000 nM	–	–	> 100	> 100	–	–	> 100
C[N+](C)(C)c1cc[c]([Sn]([c]2ccc([N+](C)(C)C)cc2)([c]2ccc([N+](C)(C)C)cc2)[c]2ccc([N+](C)(C)C)cc2)cc1	> 100	> 100	> 100	> 100	> 100	> 100	–	> 100	> 100	–	> 100000 nM	–	> 100000 nM	–	–	> 100	> 100	–	> 100000	> 100
COc1cc2ncnc(Nc3ccc(Oc4ccnc(C)c4)c(C)c3)c2cc1NC(=O)CC1CCSS1 (stereo not given)	–	–	> 50	> 50	3.31	–	–	–	–	> 12.9	1140 nM	–	–	976 nM	2480 nM	–	1.87	1.68	1500	–
CC1=CP(=O)(c2ccccc2)C=C(C)C1=C(Cl)Cl (stereo not given)	16.4	> 100	–	33.5	11.5	23.4	–	34.6	–	9.68	–	–	–	–	–	–	–	–	–	–
COc1cc(/C=C(\NC(=O)c2ccccc2)c2nc3ncncc3[nH]2)cc(OC)c1OC	> 100	> 100	> 100	> 100	–	> 100	–	> 100	–	–	–	–	–	–	–	–	–	–	–	–
CCOC(=N)CC(=O)Nc1ccccc1	> 46.4	> 46.4	> 100	> 46.4	22.8	> 46.4	–	> 100	–	> 31.6	–	–	–	–	–	–	–	–	–	–
Cc1ccc(N=C2N=C(N3CC(C)OC(C)C3)c3ccccc32)cc1 (stereo not given)	> 100	> 100	> 100	34.4	87.1	87.2	–	> 100	–	> 100	–	–	–	–	–	–	–	–	–	–
CCc1cc2c(O)c(c1)Cc1cc(CC)cc(c1O)Cc1cc(CC)cc(c1O)Cc1cc(CC)cc(c1O)Cc1cc(CC)cc(c1O)Cc1cc(CC)cc(c1O)Cc1cc(CC)cc(c1O)C2	> 100	> 100	> 100	43.3	> 100	> 100	–	> 100	–	–	–	–	–	–	–	–	–	–	–	–
COc1ccc(/C=C/C(=O)c2c(-c3ccccc3)nn(C)c(=O)c2N2CCOCC2)cc1	> 100	> 100	–	> 100	> 100	> 100	–	> 100	–	–	–	–	–	–	–	–	–	–	–	–
O=C(N=c1nc(NC(=O)c2ccccc2)ss1)c1ccccc1	47.3	49.7	> 100	> 100	77.6	> 100	–	70.6	–	> 100	–	–	–	–	–	–	–	–	–	–
O=C(Nc1ccc(Cl)cc1C(=O)O)c1ccc([N+](=O)[O-])cc1	39.4	> 100	55	–	97.3	97.2	–	51.1	–	72.2	–	–	–	–	–	–	–	–	–	–
COc1ccc(O)cc1C(O)c1ccccc1 (stereo not given)	> 100	> 100	> 100	> 100	–	> 100	–	> 100	–	> 100	–	–	–	–	–	–	–	–	–	–
COc1ccc2c(c1)CCc1cc(OC)ccc1/[N+]([O-])=[N+]\2[O-]	28.8	> 67.6	52.7	12.2	> 25.1	34.1	49.1	37.6	–	–	–	–	–	–	32200 nM	–	–	–	–	–
Cc1ccc(/C=C/C(=O)c2sc(-n3nc(-c4ccccc4)cc3-c3ccccc3)nc2C)cc1	> 100	> 100	> 100	> 100	> 100	> 100	–	> 100	–	> 100	–	–	–	–	–	–	–	–	–	–
